Substitutions are numbered along the chain they refer to.
Key:
Test in all cases: HEK assay: α-Gal A activity in HEK-293 cell lysate with migalastat
Format in all cases: cell-based
[1] = target: T1, α-Gal A mutant form p.Ile253Thr (c.758 T > C) (Homo sapiens, UniProt P06280, I253T)
T1 construct: expressed in transfected cells; host or cells: HEK-293
T1 sequence (P06280 32-429 I253T): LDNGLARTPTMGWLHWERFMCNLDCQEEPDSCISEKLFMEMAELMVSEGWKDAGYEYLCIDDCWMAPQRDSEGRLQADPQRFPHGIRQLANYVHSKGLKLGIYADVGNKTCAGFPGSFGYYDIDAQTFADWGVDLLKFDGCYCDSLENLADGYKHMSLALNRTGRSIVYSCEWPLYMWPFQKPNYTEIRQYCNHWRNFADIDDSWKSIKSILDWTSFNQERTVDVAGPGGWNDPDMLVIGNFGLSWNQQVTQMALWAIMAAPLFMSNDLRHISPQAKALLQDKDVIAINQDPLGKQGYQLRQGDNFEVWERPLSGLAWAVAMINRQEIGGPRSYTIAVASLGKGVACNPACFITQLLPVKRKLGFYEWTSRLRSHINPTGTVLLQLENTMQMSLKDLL
Description: (§1) Such mutations are also referred to herein as “HEK assay amenable” mutations.
(§2) In this assay, cDNA constructs are created. The corresponding α-Gal A mutant forms are transiently expressed in HEK-293 cells. Cells are then incubated±migalastat (17 nM to 1 mM) for 4 to 5 days. After, α-Gal A levels are measured in cell lysates using a synthetic fluorogenic substrate (4-MU-α-Gal) or by western blot. This has been done for known disease-causing missense or small in-frame insertion/deletion mutations.

[2] = target: T2, α-Gal A mutant form p.Pro205Thr (c.613 C > A) (Homo sapiens, UniProt P06280, P205T)
T2 construct: expressed in transfected cells; host or cells: HEK-293
T2 sequence (P06280 32-429 P205T): T1 sequence (P06280 32-429 I253T) with P174T, T222I
Description: as §1, §2

[3] = target: T3, α-Gal A mutant form p.Ile317Thr (c.950 T > C) (Homo sapiens, UniProt P06280, I317T)
T3 construct: expressed in transfected cells; host or cells: HEK-293
T3 sequence (P06280 32-429 I317T): T1 sequence (P06280 32-429 I253T) with T222I, I286T
Description: as §1, §2

[4] = target: T4, α-Gal A mutant form p.Ala156Thr (c.466 G > A) (Homo sapiens, UniProt P06280, A156T)
T4 construct: expressed in transfected cells; host or cells: HEK-293
T4 sequence (P06280 32-429 A156T): T1 sequence (P06280 32-429 I253T) with A125T, T222I
Description: as §1, §2

[5] = target: T5, α-Gal A mutant form p.Leu300Pro (c.899 T > C) (Homo sapiens, UniProt P06280, L300P)
T5 construct: expressed in transfected cells; host or cells: HEK-293
T5 sequence (P06280 32-429 L300P): T1 sequence (P06280 32-429 I253T) with T222I, L269P
Description: as §1, §2

[6] = +10 μM migalastat, HEK-293 cell lysate, mean ± SEM, n = 20
[7] = HEK293, 10 μM migalastat minus baseline, read-out: Absolute increase at 10 μM (% WT)

## OC[C@H]1NC[C@H](O)[C@@H](O)[C@H]1O [migalastat]
[1]; 10 μM migalastat
  α-Gal A activity at 10 μM (fold over baseline): 2.07 fold over baseline
[1]; [6]
  +Migalastat α-Gal A activity: 23417 ± 1077 nmol/mg/h
  +Migalastat α-Gal A activity % WT: 80.2 ± 5.9 % WT
[1]; [7]
  activation at 10 µM: 41.3%
[2]; 10 μM migalastat
  α-Gal A activity at 10 μM (fold over baseline): 3.41 fold over baseline
[2]; [6]
  +Migalastat α-Gal A activity: 16371 ± 647 nmol/mg/h
  +Migalastat α-Gal A activity % WT: 48.8 ± 2.2 % WT
[2]; [7]
  activation at 10 µM: 34.4%
[3]; 10 μM migalastat
  α-Gal A activity at 10 μM (fold over baseline): 3.40 fold over baseline
[3]; [6]
  +Migalastat α-Gal A activity: 7812 ± 530 nmol/mg/h
  +Migalastat α-Gal A activity % WT: 23.6 ± 1.0 % WT
[3]; [7]
  activation at 10 µM: 17%
[4]; 10 μM migalastat
  α-Gal A activity at 10 μM (fold over baseline): 7.75 fold over baseline
[4]; [6]
  +Migalastat α-Gal A activity: 7034 ± 289 nmol/mg/h
  +Migalastat α-Gal A activity % WT: 21.9 ± 0.9 % WT
[4]; [7]
  activation at 10 µM: 19.1%
[5]; 10 μM migalastat
  α-Gal A activity at 10 μM (fold over baseline): 10.35 fold over baseline
[5]; [6]
  +Migalastat α-Gal A activity: 13219 ± 412 nmol/mg/h
  +Migalastat α-Gal A activity % WT: 37.9 ± 1.2 % WT
[5]; [7]
  activation at 10 µM: 34.2%

— patent US20210038579A1, “Treatment Of Patients With Classic Fabry Disease” (Amicus Therapeutics, Inc., priority 2018, published 2021)
